Data as given in article PMC10062709, “Fluorescence based HTS-compatible ligand binding assays for dopamine D3 receptors in baculovirus preparations and live cells” (Frontiers in Molecular Biosciences, 2023).

Biological target: T1, human D3 receptor (Homo sapiens, UniProt P35462)
T1 construct: host or cells: Sf9 cells; final budded baculovirus production in Mimic Sf9 insect cells
Assay: Fluorescence anisotropy competition binding with CELT-419 and D3 receptor budded baculoviruses
Details: FA competition with 0.5 nM CELT-419
Protocol: The competitive ligand dilutions were done on the measurement plate. Also, a point with no competitive ligand was included and for blank correction, a point with only BBV was included. Measurements were carried out with 5 min intervals for 5 h at 27 °C. In all cases, BBV was added as the last component to initiate the ligand binding process.
To fit the Log(IC50) change in time from the competition binding experiments, a single-phase exponential decay equation with a constant corresponding to the equilibrium state was used.

T1 sequence (P35462 whole entry): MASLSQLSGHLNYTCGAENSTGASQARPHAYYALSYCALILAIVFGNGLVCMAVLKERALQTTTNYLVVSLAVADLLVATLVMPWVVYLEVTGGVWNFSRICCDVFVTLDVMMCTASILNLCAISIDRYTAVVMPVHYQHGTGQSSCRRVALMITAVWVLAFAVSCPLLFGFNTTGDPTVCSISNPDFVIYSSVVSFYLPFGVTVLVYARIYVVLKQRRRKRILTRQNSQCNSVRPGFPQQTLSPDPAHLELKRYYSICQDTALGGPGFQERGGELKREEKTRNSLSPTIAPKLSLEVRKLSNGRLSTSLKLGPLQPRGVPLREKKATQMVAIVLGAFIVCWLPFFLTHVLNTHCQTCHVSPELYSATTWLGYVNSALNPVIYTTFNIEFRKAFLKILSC

`CN1CCc2cccc3c2[C@H]1Cc1ccc(O)c(O)c1-3` [Apomorphine] was tested, and the “Log(IC50) values change in time” value was “increased in time”.
